Source: article PMC11137182, “Selective and brain-penetrant ACSS2 inhibitors target breast cancer brain metastatic cells” (Frontiers in Pharmacology, 2024)
Read-outs that look alike come from different tables or passages of the source.

How the values were obtained:
[1] = Human liver microsome stability; details: human, liver microsomes
ACSS2 = molecular target: T1, ACSS2 (Homo sapiens, UniProt Q9NR19); assay: SPR binding to immobilized ACSS2; details: mean
T1 construct: His-tag (N); His-tag (C); made in house; host or cells: E. coli BL21 (DE3) RIL
T1 sequence (Q9NR19 whole entry): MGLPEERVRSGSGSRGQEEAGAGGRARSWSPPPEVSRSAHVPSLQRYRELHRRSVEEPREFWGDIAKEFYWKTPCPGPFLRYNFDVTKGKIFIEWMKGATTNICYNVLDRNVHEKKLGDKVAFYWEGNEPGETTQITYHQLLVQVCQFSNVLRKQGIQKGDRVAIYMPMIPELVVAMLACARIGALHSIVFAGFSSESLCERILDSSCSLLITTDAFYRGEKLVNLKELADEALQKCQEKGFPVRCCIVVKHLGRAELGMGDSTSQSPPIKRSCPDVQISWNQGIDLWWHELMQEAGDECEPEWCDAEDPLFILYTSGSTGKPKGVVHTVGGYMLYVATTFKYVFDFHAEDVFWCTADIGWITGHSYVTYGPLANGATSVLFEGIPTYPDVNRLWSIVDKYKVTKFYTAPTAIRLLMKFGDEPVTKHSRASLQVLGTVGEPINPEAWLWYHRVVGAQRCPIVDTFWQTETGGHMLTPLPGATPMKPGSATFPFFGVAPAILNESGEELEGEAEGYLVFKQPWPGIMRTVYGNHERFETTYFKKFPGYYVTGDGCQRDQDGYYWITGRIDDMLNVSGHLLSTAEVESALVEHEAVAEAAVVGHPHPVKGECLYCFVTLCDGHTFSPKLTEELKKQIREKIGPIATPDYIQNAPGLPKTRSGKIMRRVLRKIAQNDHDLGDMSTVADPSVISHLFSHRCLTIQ
Method: Overproduction of ACSS2 was achieved using a prokaryotic expression system. […] The bacterial expressions were then spun down, the supernatant discarded, and the pellets resuspended in 50 mM Tris HCl pH8.0, 800 mM NaCl, 5 mM Imidazole, 2 mM MgCl2, 10% Glycerol, 0.1 mg/mL Lysozyme, 1 mM Protease inhibitor (PMSF). After the cells were lysed via sonication, the sample was subjected to ultracentrifugation, and the clarified lysate was applied to a 5 mL Talon cobalt resin affinity column (Clonetech Laboratories, Mountain View, CA). The bound protein was washed with 300 mL wash buffer 1 (20 mM Tris HCl pH8.0, 800 mM NaCl, 15 mM Imidazole, 5 mM MgCl2, 10% Glycerol, 0.1% CHAPS) and 300 mL wash buffer 2 (20 mM Tris HCl pH8.0, 400 mM NaCl, 18 mM Imidazole, 5 mM MgCl2, 10% Glycerol) prior elution with 20 mM Tris HCl pH8.0, 400 mM NaCl, 300 mM Imidazole, 2 mM MgCl2, 5% Glycerol. Eluted ACSS2 was then dialyzed overnight into 20 mM Tris HCl pH8.0, 150 mM NaCl, 5% Glycerol, concentrated and applied to a Superdex S-200 (16/600) using the same buffer without Glycerol. ACSS2 fractions were pooled, concentrated to 3 mg/mL, aliquoted, and stored at −80°C. hACSS1 was obtained from a commercial vendor (www.mybiosource.com).
All binding assays were performed on a ProteOn XPR36 SPR Protein Interaction Array System (Bio-Rad Laboratories, Hercules, CA, United States). The instrument temperature was set at 25°C for all kinetic analyses. ProteOn GLH sensor chips were preconditioned with two short pulses each (10 s) of 50 mM NaOH, 100 mM HCl, and 0.5% sodium […]. Then, the system was equilibrated with running buffer (1x PBS pH 7.4, 3% DMSO, and 0.005% polysorbate 20). The surface of a GLH sensor chip was activated with a 1:100 dilution of a 1:1 mixture of 1-ethyl-3-(3-dimethylaminopropyl) carbodiimide hydrochloride (0.2 M) and sulfo-N-hydroxysuccinimide (0.05 M). Immediately after chip activation, the human ACSS2 or hACSS1 proteins were prepared at a concentration of 10 μg/mL in 10 mM sodium acetate, pH 5.5, and injected across ligand flow channels for 5 min at a flow rate of 30 μL/min. Then, after unreacted protein had been washed out, excess active ester groups on the sensor surface were capped by a 5 min injection of 1M ethanolamine HCl (pH 8.0) at a flow rate of 5 μL/min. A reference surface was similarly created by immobilizing a nonspecific protein (IgG b12 anti-HIV-1 gp120; was obtained through the NIH AIDS Reagent Program, Division of AIDS, NIAID, NIH: Anti-HIV-1 gp120 Monoclonal (IgG1 b12) from Dr. Dennis Burton and Carlos Barbas) and was used as a background to correct nonspecific binding. […] Data were analyzed using the ProteOn Manager Software version 3.0 (Bio-Rad). The responses from the reference flow cell were subtracted to account for the nonspecific binding and injection artifacts. Experimental data were fitted to a simple 1:1 binding model. Experiments were performed in triplicate to detect kinetic and equilibrium dissociation constants (KD).

[2] = test system: MDA-MB-231BR tumor bearing brain slices; assay: Ex vivo tumor-brain slice model; set-up: species or system Nu/Nu mice; details: MDA-MB-231BR brain slices, 100 μM, 6 days, bioluminescence
Method: Ex vivo brain slice tumor model was performed as previously described ([Ciraku et al., 2021]). Briefly, Nu/Nu athymic 4–6 week old mice Charles River Laboratories (Wilmington, MA, United States) were immobilized using the Just for Mice Stereotaxic Frame (Harvard Apparatus, Holliston, MA, United States) and injected intracranially with 5uL of 20,000 cells/uL solution of luciferase tagged MDA-MB-231BR or 4T1BR cells. Tumor growth was monitored via bioluminescence imaging on the IVIS system (Perkin Elmer, Waltman, MA, United States). Organotypic hippocampal cultures were prepared as described previously ([Ciraku et al., 2021]). Briefly, adult mice (4–6 weeks) or mice after 12 days following intracranial injection were decapitated and their brains rapidly removed into ice-cold (4°C) sucrose-aCSF composed of the following (in mM): 280 sucrose, 5 KCl, 2 MgCl2, 1 CaCl2, 20 glucose, 10 HEPES, 5 Na^+-ascorbate, 3 thiourea, 2 Na^+-pyruvate; pH = 7.3. […] Tumor growth was monitored via bioluminescence imaging on the IVIS 200 system (Perkin Elmer), and results were analyzed using Living Image software (Caliper Life Sciences, Waltham, MA, United StatesUnited States). […] Tissues were incubated at 37 ℃ , 5% CO2 for 4 h, and absorbance at 490 nm was measured with a Tecan Spark Microplate reader.

N[C@H](C(=O)N1CCCC(c2ccccc2)(c2ccccc2)C1)C1CC1 [AD-8007]
CLint scaled [1]: < 8.6 mL/min/kg
microsomal CLint [1]: < 9.6 µL/min/mg
half-life ([1]; Human Liver Microsome Stability T1/2, human liver microsomes): > 2.42 h
koff (ACSS2; 1:1 binding model, n=3, read-out: koff): 0.547 s⁻¹
kon (ACSS2; 1:1 binding model, n=3, read-out: kon): 4790 M⁻¹ s⁻¹
Kd (ACSS2; 25°C, Langmuir isotherm equilibrium fit, n=3, read-out: KD equilibrium): 117 µM
Kd (ACSS2; global fit, n=3, read-out: KD kinetic/global): 149 µM
tumor growth of preformed tumors ex vivo [2]: significantly reduced tumor growth of preformed tumors
